Series [1] has as its system IL-12p70. Put plainly: Serum sIL-12 in SCID mice. The format is in vivo, mouse. As to conditions: SCID mice after mirtazapine treatment. The source says: Also, Applicant divides other six-weeks-old immunodeficient male SCID mice (purchased from the National Laboratory Animal Center, Taiwan) into two groups, such as the group named “never-SCID” (hereafter called “never-SCID”) and the group named “always-SCID” (hereafter called “always-SCID”), as control groups for verifying the involvement of the immune system in the inhibition of the tumor growth by mirtazapine. Never-SCID means that the mice are monitored with tumor inoculation but without mirtazapine treatment, and always-SCID means the mice are monitored with mirtazapine treatment initiated 2 weeks before tumor inoculation. As to the quantification of interleukin-12 (hereafter called “IL-12”), the whole blood withdrawn from the pouch of each mouse was centrifuged at 600×g for 20 min, and serum was collected. The serum IL-12p70 (sIL-12) level was determined using an ELISA kit (R&D Systems, Taiwan). Identification for the lymph node cluster of differentiated CD4+ T helper and CD8+T-cytotoxic lymphocyte subsets was assayed. Briefly, the lymphocytes isolated from the lymph nodes of groins of mice were stained with phycoerythrin-conjugated antimouse CD4 (CD4-PE) monoclonal antibody and peridininchlorophyll-protein-complex-conjugated anti-mouse CD8 (CD8-PerCP) monoclonal antibody (BioLegend, USA). Lymphocyte subsets were identified by FACS analysis using a FACS Calibur flow cytometer. […]

Series [2] has as its system BALB/c mice. Nature of the series: Spontaneous motor activity assay. Type of series: in vivo, mouse. Particulars: continuous mirtazapine 10 mg/kg/d (drug and always); day 22 after tumor inoculation. As for the experimental part:
(§1) Second, all animal study protocols were approved by the Institutional Animal Care and Use Committee (IACAU) of National Yang Ming University. Mirtazapine (0.25 mg) was dissolved in 0.05 ml of 0.9% NaCl plus 0.5% absolute ethanol for each mouse (i.e. 10 mg/kg.) Male BALB/c mice (initial weights 25±2 g, and purchased from the National Laboratory Animal Center, Taipei, Taiwan) were housed in the cages, five mice per cage, under a 12:12 h reverse light/dark cycle with lights off at 6 pm Animals were handled and weighed daily for a week to reduce any non-specific stress responses. […] “Wild-type” means the mice are monitored without tumor inoculation and mirtazapine treatment, drug means the mice are monitored with continuous mirtazapine treatment but without tumor inoculation, never means the mice are monitored with tumor inoculation and daily 0.05 ml of 0.9% NaCl plus 0.5% absolute ethanol treatment but without mirtazapine treatment, always means the mice are monitored with mirtazapine treatment initiated 2 weeks before the tumor inoculation, and concurrent means the mice are monitored with tumor inoculation and mirtazapine treatment on the same day, and after means the mice are monitored with mirtazapine treatment initiated 2 weeks post the tumor inoculation. […]

Series [3] concerns CT26/luc cells. Put plainly: MTT cell viability assay. Type of series: cell-based, mouse. Particulars: 0-80 μM for 24, 48 and 72 hrs. As for the experimental part:
The details in preparing the materials and processing relative analyses will be illustrated as follows. First, CT-26 murine colon carcinoma cells (obtained from Taiwan Liposome Company, Taipei, Taiwan) were transfected with the luciferase gene (hereafter called “CT26/luc”). The CT26/luc tumor cells were cultured in RPMI 1640 medium (Invitrogen) supplemented with 10% fetal bovine serum (Hyclone), 100 units/ml of penicillin, and […] streptomycin (Gibco-BRL) at 37° C. in a 5% CO2 atmosphere.
Before starting the following investigation. The cell viability is analyzed. 3-(4,5-Dimethylthiazol-2-yl)-2,5-diphenyltetrazolium bromide (MTT, Sigma, USA) was dissolved in phosphate-buffered saline (145 mM NaCl, 1.4 mM KH2PO4, 4.3 mM Na2HPO4, and 2.7 mM KCl, pH 7.2). The CT26/luc cells were seeded in 96-well plates overnight, and then treated with various concentrations, such as 0, 5, 10, 20, 40, and 80 μM, of mirtazapine for 24, 48, and 72 hrs. And then, cell viability was determined with MTT assay. […] After 4 hours incubation at 37° C., 100 μl DMSO was added to dissolve the MTT formazan, and the absorbance was determined with an ELISA reader (Power Wave X340, Bio-Tek Instrument Inc., USA) using a wavelength of 570 nm for the excitation. […] The cell cycle analysis was assayed using a FACScan (BD Sciences) and analyzed by CellQuest software (BD Sciences).
Background: Formazan colour is commonly taken as a measure of viable cells.

The conditions of series [4]: mouse, in vivo. The protocol:
as §1

The test system of series [5] is BALB/c mice. Nature of the series: Tail suspension test (immobility time). Type of series: in vivo, mouse. As to conditions: continuous mirtazapine 10 mg/kg/d (drug and always); day 22 after tumor inoculation. As for the experimental part:
as §1

We go through one molecule from patent publication US20140271727A1, “METHOD OF USING AN ANTIDEPRESSANT FOR INCREASING IMMUNITY OF A SUBJECT AND TREATING CANCER” (NATIONAL YANG-MING UNIVERSITY, priority 2013, published 2014).

Turning to `CN1CCN2c3ncccc3Cc3ccccc3C2C1` (centres unmarked) [mirtazapine], the “increase of sIL-12 level in SCID mice” value in series [1] was “not found”. For the same molecule, the spontaneous motor activity result in series [2] is “no effect”. Also, the “toxicity to CT26 colon cells” value in series [3] is “nontoxic”. Further, the “body weight change (general toxicity)” value in series [4] is recorded as “no significant body weight change”. Also, in series [5], the immobility time entry is on record as “significantly decreased”.
